# ALG = not defined here; PHG = not defined here
# Legend:
# [1] = biological target: HLA-A0201 (Homo sapiens, UniProt P04439, D140Y/D185E/D98H/E176V/E277Q/G131W/G231S/I119V/I121R/I166T/I218V/L300P/L318F/N151K/N90K/P208A/P217A/Q86G/Q94H/R138H/R169H/T345S); assay type: binding
# [2] = system: HLA-A2::Mart-1(26-35) reactive T cells stimulated by T2 cells; test: T cell activation time course assay, IFNγ production (FACS), Mart-1 epitope; assay type: cell-based; conditions: for % CD8+ T cells producing IFN-γ 0H / Geometric mean IFN-γ in arbitrary fluorescence units 0H: time point 0H (basal); for % CD8+ T cells producing IFN-γ 2H / Geometric mean IFN-γ in arbitrary fluorescence units 2H: time point 2H; for % CD8+ T cells producing IFN-γ 4H / Geometric mean IFN-γ in arbitrary fluorescence units 4H: time point 4H; for % CD8+ T cells producing IFN-γ 24H / Geometric mean IFN-γ in arbitrary fluorescence units 24H: time point 24H; for % CD8+ T cells producing IFN-γ 24H / Geometric mean IFN-γ in arbitrary fluorescence units 24H / % CD8+ T cells producing IFN-γ 48H / Geometric mean IFN-γ in arbitrary fluorescence units 48H: free peptide washed away; for % CD8+ T cells producing IFN-γ 48H / Geometric mean IFN-γ in arbitrary fluorescence units 48H: time point 48H
substance,measurement,setting,value
E[2-AOC]AGIGI[4FPHE]T[OM-HS],% inhibition at T=4H and T=24H FP 4h,[1],78%
same,% inhibition at T=4H and T=24H FP 24h,[1],66%
same,IC50 Ratio,[1],1.9
[CSME][2-AOC]AGIGILTV,% CD8+ T cells producing IFN-γ 0H,[2]; peptide 0.5 pM,0%
same,Geometric mean IFN-γ in arbitrary fluorescence units 0H,[2]; peptide 0.5 pM,101 arbitrary fluorescence units
same,% CD8+ T cells producing IFN-γ 2H,[2]; peptide 0.5 pM,27%
same,Geometric mean IFN-γ in arbitrary fluorescence units 2H,[2]; peptide 0.5 pM,219 arbitrary fluorescence units
same,% CD8+ T cells producing IFN-γ 4H,[2]; peptide 0.5 pM,29%
same,Geometric mean IFN-γ in arbitrary fluorescence units 4H,[2]; peptide 0.5 pM,368 arbitrary fluorescence units
same,% CD8+ T cells producing IFN-γ 24H,[2]; peptide 0.5 pM,18%
same,Geometric mean IFN-γ in arbitrary fluorescence units 24H,[2]; peptide 0.5 pM,167 arbitrary fluorescence units
same,% CD8+ T cells producing IFN-γ 48H,[2]; peptide 0.5 pM,7%
same,Geometric mean IFN-γ in arbitrary fluorescence units 48H,[2]; peptide 0.5 pM,119 arbitrary fluorescence units
same,% CD8+ T cells producing IFN-γ 0H,[2]; peptide 50 pM,0%
same,Geometric mean IFN-γ in arbitrary fluorescence units 0H,[2]; peptide 50 pM,111 arbitrary fluorescence units
same,% CD8+ T cells producing IFN-γ 2H,[2]; peptide 50 pM,28%
same,Geometric mean IFN-γ in arbitrary fluorescence units 2H,[2]; peptide 50 pM,249 arbitrary fluorescence units
same,% CD8+ T cells producing IFN-γ 4H,[2]; peptide 50 pM,31%
same,Geometric mean IFN-γ in arbitrary fluorescence units 4H,[2]; peptide 50 pM,563 arbitrary fluorescence units
same,% CD8+ T cells producing IFN-γ 24H,[2]; peptide 50 pM,27%
same,Geometric mean IFN-γ in arbitrary fluorescence units 24H,[2]; peptide 50 pM,397 arbitrary fluorescence units
same,% CD8+ T cells producing IFN-γ 48H,[2]; peptide 50 pM,20%
same,Geometric mean IFN-γ in arbitrary fluorescence units 48H,[2]; peptide 50 pM,288 arbitrary fluorescence units
[CSME][2-AOC]KDVEERV,% inhibition at T=4H and T=24H FP 4h,[1],60%
same,% inhibition at T=4H and T=24H FP 24h,[1],56%
[CSME][NVA]AGIGILT[PRG],% inhibition at T=4H and T=24H FP 4h,[1],63%
same,% inhibition at T=4H and T=24H FP 24h,[1],60%
same,IC50 Ratio,[1],2.8
[PHG][NVA]AGIGILT[ALG] ({PHG-NVA}-AGIGILT-{ALG}; reading uncertain; also: printed as [PHG][NVA]AGIGILT[ALG]),% inhibition at T=4H and T=24H FP 4h,[1],65%
same,% inhibition at T=4H and T=24H FP 24h,[1],64%
same,IC50 Ratio,[1],18.9
[PHG]AAGIGI[4-FPHE]T[NLE],% inhibition at T=4H and T=24H FP 4h,[1],63%
same,% inhibition at T=4H and T=24H FP 24h,[1],66%
same,IC50 Ratio,[1],6.8
[3-PYRA]MYSDFHFI,% inhibition at T=4H and T=24H FP 4H,[1],79%
same,% inhibition at T=4H and T=24H FP 24H,[1],76%
[am-phg]LAGIGILT[PRG],% CD8+ T cells producing IFN-γ 0H,[2]; peptide 0.5 pM,0%
same,Geometric mean IFN-γ in arbitrary fluorescence units 0H,[2]; peptide 0.5 pM,94 arbitrary fluorescence units
same,% CD8+ T cells producing IFN-γ 2H,[2]; peptide 0.5 pM,27%
same,Geometric mean IFN-γ in arbitrary fluorescence units 2H,[2]; peptide 0.5 pM,214 arbitrary fluorescence units
same,% CD8+ T cells producing IFN-γ 4H,[2]; peptide 0.5 pM,29%
same,Geometric mean IFN-γ in arbitrary fluorescence units 4H,[2]; peptide 0.5 pM,345 arbitrary fluorescence units
same,% CD8+ T cells producing IFN-γ 24H,[2]; peptide 0.5 pM,15%
same,Geometric mean IFN-γ in arbitrary fluorescence units 24H,[2]; peptide 0.5 pM,159 arbitrary fluorescence units
same,% CD8+ T cells producing IFN-γ 48H,[2]; peptide 0.5 pM,3%
same,Geometric mean IFN-γ in arbitrary fluorescence units 48H,[2]; peptide 0.5 pM,103 arbitrary fluorescence units
same,% CD8+ T cells producing IFN-γ 0H,[2]; peptide 50 pM,0%
same,Geometric mean IFN-γ in arbitrary fluorescence units 0H,[2]; peptide 50 pM,105 arbitrary fluorescence units
same,% CD8+ T cells producing IFN-γ 2H,[2]; peptide 50 pM,22%
same,Geometric mean IFN-γ in arbitrary fluorescence units 2H,[2]; peptide 50 pM,249 arbitrary fluorescence units
same,% CD8+ T cells producing IFN-γ 4H,[2]; peptide 50 pM,31%
same,Geometric mean IFN-γ in arbitrary fluorescence units 4H,[2]; peptide 50 pM,480 arbitrary fluorescence units
same,% CD8+ T cells producing IFN-γ 24H,[2]; peptide 50 pM,28%
same,Geometric mean IFN-γ in arbitrary fluorescence units 24H,[2]; peptide 50 pM,342 arbitrary fluorescence units
same,% CD8+ T cells producing IFN-γ 48H,[2]; peptide 50 pM,18%
same,Geometric mean IFN-γ in arbitrary fluorescence units 48H,[2]; peptide 50 pM,215 arbitrary fluorescence units
[CSME][2-AOC]AGIGILT[PRG],% inhibition at T=4H and T=24H FP 4h,[1],72%
same,% inhibition at T=4H and T=24H FP 24h,[1],70%
same,IC50 Ratio,[1],14.8

# From EP2649091B1, “IMMUNE RESTRICTED PEPTIDES WITH INCREASED EFFICACY” (Stichting Het Nederlands Kanker Instituut, priority 2010, dated 2012)
